Here are results for 60 compounds from ChEMBL document CHEMBL1208672, “Novel 8-arylated purines as inhibitors of glycogen synthase kinase” (Eur J Med Chem, 2010).

Each structure is given as a SMILES string. pIC50: −log10 of the molar value.

Test [1] has as its target T1, Cyclin-dependent kinase 5/CDK5 activator 1 (Homo sapiens) (UniProt Q00535+Q15078). Kind of test: Inhibition of CDK5/p25 assessed as residual activity at 1 uM relative to control. Type of test: protein-complex assay.
Test [2] has as its target Glycogen synthase kinase-3 alpha (Homo sapiens) (UniProt P49840). Kind of test: Inhibition of human GSK3alpha assessed as residual activity at 1 uM relative to control.
Test [3] addresses T2, Glycogen synthase kinase-3 beta (Homo sapiens, UniProt P49841).
Target sequence in this assay (P49841 whole entry): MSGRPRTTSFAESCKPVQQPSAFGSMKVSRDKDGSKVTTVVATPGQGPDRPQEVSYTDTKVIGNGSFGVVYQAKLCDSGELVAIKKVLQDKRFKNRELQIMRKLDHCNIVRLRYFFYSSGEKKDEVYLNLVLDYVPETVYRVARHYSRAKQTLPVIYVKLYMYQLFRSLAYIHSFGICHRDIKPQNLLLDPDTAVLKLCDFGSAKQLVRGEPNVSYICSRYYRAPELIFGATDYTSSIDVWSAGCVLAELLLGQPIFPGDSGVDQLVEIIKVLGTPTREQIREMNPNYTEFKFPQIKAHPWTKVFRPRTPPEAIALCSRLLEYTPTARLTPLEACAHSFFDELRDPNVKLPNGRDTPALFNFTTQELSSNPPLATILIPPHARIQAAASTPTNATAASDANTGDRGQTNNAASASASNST
For test [4], the target named is Insulin-like growth factor 1 receptor (Homo sapiens) (UniProt P08069). Nature of the test: Inhibition of IGF1R assessed as residual activity at 10 uM relative to control.
Insulin-like growth factor 1 receptor (Homo sapiens), sequence (P08069 31-736 limits assumed): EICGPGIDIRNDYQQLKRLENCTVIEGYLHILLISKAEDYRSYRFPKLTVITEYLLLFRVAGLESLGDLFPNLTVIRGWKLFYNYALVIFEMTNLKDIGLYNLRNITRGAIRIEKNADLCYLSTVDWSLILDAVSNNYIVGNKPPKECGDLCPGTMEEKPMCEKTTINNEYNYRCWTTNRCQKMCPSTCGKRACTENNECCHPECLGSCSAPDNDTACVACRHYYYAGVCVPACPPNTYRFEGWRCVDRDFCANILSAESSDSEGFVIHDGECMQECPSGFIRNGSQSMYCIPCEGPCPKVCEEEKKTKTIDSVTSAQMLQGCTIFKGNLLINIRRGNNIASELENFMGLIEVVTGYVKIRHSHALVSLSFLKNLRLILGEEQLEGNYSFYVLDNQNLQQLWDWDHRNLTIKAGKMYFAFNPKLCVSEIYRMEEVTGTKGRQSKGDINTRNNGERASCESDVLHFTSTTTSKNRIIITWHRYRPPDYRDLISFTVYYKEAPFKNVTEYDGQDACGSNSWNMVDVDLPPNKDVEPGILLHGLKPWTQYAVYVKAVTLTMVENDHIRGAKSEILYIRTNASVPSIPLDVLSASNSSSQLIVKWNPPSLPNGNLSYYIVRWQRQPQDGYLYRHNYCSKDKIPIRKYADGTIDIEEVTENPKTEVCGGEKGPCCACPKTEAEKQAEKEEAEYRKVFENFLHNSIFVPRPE
Insulin-like growth factor 1 receptor (Homo sapiens), sequence (P08069 741-1367 limits assumed): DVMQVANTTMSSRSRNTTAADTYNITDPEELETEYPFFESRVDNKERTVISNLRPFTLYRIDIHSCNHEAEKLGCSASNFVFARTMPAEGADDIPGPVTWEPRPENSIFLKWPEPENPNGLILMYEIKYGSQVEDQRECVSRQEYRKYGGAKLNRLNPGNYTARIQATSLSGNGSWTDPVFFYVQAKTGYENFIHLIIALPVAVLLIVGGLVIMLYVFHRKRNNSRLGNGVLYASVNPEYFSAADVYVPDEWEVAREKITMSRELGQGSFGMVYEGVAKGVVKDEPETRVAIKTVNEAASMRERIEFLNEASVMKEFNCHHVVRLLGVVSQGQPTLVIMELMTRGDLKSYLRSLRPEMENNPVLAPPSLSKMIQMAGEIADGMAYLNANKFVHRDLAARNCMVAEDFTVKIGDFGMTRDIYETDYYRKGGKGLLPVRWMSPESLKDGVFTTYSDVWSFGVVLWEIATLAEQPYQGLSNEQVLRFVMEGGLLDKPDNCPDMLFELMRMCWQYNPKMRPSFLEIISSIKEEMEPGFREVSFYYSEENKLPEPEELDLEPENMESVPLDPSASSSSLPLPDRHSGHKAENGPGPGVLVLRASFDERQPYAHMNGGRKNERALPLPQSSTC
Test [5] has as its target Mitogen-activated protein kinase 3 (Homo sapiens) (UniProt P27361). Nature of the test: Inhibition of ERK1 at 10 uM relative to control. More on the design: scale not given: the % may be the effect or the level left.
The target of test [6] is Casein kinase II subunit alpha (Homo sapiens) (UniProt P68400). Nature of the test: Inhibition of CK2alpha assessed as residual activity at 10 uM relative to control.
For test [7], the target named is Mitogen-activated protein kinase 8 (Homo sapiens) (UniProt P45983). Nature of the test: Inhibition of JNK1 assessed as residual activity at 10 uM relative to control.
Mitogen-activated protein kinase 8 (Homo sapiens), sequence (P45983 whole entry): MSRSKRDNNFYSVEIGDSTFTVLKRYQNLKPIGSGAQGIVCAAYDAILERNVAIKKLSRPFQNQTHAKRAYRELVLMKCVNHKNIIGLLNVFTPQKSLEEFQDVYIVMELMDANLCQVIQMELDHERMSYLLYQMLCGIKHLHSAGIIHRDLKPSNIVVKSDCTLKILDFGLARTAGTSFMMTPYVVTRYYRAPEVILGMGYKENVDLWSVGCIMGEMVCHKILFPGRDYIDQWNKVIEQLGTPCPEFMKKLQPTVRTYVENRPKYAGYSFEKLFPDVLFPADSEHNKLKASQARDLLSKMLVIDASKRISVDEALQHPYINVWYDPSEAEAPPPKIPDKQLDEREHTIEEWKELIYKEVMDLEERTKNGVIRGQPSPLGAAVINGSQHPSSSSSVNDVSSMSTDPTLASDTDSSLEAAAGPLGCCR
The target of test [8] is Epidermal growth factor receptor (Homo sapiens) (UniProt P00533). Nature of the test: Inhibition of EGFR assessed as residual activity at 10 uM relative to control.
Epidermal growth factor receptor (Homo sapiens), sequence (P00533 whole entry): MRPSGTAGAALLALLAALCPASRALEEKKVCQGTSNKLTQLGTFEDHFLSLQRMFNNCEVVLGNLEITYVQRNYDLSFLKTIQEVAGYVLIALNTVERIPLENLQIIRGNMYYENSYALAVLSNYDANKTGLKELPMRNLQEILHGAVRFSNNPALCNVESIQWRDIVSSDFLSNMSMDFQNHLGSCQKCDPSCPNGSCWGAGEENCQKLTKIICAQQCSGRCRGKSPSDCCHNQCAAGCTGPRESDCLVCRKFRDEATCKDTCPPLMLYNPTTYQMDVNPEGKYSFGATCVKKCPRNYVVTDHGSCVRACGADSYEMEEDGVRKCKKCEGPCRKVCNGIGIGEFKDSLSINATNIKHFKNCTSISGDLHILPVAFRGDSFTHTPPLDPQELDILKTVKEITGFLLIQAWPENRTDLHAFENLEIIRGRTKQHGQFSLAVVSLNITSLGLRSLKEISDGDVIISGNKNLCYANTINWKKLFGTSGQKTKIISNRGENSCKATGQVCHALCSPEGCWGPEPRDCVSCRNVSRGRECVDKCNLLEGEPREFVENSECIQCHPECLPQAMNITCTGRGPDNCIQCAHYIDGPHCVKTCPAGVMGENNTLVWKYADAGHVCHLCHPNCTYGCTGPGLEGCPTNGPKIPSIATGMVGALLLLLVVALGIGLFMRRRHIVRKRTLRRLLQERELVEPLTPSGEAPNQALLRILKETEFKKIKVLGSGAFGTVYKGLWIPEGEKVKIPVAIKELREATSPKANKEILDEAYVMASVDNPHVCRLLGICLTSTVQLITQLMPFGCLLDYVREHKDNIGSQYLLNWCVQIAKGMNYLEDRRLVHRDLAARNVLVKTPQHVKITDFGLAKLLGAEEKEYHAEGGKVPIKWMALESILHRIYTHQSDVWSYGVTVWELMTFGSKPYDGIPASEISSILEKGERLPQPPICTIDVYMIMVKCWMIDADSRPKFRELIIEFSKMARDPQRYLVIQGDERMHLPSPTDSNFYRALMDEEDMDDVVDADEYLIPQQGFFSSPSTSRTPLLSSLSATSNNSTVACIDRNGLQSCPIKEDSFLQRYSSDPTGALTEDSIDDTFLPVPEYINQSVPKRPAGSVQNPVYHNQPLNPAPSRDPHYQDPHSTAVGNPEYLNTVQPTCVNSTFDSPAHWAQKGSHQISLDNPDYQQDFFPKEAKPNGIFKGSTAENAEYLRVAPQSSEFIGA
Test [9] has as its target T1, Cyclin-dependent kinase 5/CDK5 activator 1 (Homo sapiens). Kind of test: Inhibition of CDK5/p25 assessed as residual activity at 10 uM relative to control. Type of test: protein-complex assay.
In test [10] the target is T3, Tyrosine-protein kinase receptor TYRO3 (Homo sapiens) (UniProt Q06418).
T3 sequence (whole entry): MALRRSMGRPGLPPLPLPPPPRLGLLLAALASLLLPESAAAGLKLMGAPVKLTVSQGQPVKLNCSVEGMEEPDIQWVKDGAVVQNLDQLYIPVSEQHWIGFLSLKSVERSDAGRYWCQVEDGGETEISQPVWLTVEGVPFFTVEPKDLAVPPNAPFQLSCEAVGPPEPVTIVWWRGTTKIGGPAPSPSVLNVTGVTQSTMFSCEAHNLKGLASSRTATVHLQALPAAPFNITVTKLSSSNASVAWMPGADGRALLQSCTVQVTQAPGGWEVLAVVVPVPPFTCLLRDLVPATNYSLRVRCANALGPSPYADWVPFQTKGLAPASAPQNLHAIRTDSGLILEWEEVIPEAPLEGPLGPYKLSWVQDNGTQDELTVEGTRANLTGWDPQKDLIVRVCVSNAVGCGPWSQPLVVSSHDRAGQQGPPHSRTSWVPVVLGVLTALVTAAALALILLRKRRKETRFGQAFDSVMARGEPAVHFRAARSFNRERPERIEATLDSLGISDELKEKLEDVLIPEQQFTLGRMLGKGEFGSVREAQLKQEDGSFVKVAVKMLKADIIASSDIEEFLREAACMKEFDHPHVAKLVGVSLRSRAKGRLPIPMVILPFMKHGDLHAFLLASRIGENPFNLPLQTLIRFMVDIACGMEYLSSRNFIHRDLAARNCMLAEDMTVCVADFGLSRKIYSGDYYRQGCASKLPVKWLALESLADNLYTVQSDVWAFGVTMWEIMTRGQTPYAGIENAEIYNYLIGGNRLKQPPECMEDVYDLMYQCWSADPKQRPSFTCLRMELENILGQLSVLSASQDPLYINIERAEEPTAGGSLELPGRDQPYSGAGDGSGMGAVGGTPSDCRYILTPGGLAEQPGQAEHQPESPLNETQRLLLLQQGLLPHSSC
Kind of test: Inhibition of TYRO3/SKY assessed as residual activity at 10 uM relative to control.

The target of test [11] is Casein kinase I isoform alpha (Homo sapiens) (UniProt P48729). Nature of the test: Inhibition of CK1alpha1 assessed as residual activity at 10 uM relative to control.
In test [12] the target is T2, Glycogen synthase kinase-3 beta. Kind of test: Inhibition of human GSK3-beta assessed as residual activity at 10 uM relative to control.
Target sequence in this assay (P49841 whole entry, looked up): as the sequence (P49841 whole entry) above
In test [13] the target is MAP kinase-activated protein kinase 2 (Homo sapiens) (UniProt P49137). Nature of the test: Inhibition of MAPKAPK2 assessed as residual activity at 10 uM relative to control.
MAP kinase-activated protein kinase 2 (Homo sapiens), sequence (P49137 whole entry, looked up): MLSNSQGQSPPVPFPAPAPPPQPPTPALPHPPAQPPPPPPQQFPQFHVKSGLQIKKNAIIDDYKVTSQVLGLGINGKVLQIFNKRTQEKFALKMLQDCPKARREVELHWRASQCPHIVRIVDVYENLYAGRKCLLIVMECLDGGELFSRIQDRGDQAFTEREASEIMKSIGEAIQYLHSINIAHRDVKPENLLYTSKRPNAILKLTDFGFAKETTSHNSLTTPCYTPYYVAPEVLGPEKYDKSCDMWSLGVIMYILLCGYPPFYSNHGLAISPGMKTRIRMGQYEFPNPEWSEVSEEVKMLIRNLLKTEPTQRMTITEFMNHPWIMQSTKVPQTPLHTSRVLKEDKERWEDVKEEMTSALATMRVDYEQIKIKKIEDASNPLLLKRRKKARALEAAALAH

Glycogen synthase kinase-3 alpha (Homo sapiens), sequence (P49840 2-483 limits assumed): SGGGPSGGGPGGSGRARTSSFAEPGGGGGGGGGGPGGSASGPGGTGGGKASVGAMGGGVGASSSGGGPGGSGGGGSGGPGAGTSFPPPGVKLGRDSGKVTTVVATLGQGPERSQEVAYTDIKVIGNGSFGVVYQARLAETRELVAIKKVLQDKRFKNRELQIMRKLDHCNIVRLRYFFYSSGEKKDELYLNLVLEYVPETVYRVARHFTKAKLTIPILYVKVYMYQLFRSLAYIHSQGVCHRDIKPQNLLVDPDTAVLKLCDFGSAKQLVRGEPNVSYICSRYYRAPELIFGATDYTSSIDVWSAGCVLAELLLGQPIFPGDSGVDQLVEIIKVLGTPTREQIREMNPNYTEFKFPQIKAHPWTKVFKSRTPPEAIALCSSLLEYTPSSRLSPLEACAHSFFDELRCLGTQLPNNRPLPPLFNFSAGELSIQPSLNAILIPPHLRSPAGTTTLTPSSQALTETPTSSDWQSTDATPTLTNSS
T1 sequence (Q00535 whole entry): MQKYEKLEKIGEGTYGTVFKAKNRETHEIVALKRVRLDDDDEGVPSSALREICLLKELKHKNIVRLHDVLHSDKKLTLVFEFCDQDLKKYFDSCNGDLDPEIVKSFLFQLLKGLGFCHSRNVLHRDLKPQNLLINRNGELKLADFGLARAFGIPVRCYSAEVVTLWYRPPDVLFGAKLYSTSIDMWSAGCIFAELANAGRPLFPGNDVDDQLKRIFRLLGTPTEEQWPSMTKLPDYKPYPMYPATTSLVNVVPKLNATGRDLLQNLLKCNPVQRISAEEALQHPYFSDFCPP
T1 sequence (Q15078 99-307 partner limits assumed): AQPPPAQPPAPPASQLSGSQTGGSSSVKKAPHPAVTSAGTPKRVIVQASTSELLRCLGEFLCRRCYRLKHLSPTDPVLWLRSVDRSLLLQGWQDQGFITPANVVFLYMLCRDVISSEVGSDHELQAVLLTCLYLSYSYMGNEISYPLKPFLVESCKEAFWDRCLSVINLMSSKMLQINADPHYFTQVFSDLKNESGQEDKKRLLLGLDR

As to `O=C(Nc1ncnc2[nH]c(-c3cccc(Cl)c3)nc12)c1ccccc1`, the values for the Activity in test [1] and in test [2] were 102% and 60%, respectively.

For `COc1ccc(C(=O)Nc2ncnc3[nH]c(/C=C/c4ccccc4)nc23)cc1`, the Activity amounted to 104% in test [1] and 96% in test [2].

For the compound `Cn1c(-c2ccccc2)nc2c(NCc3cccnc3)ncnc21`, the Activity in test [1] was found to be 99%.

Regarding `CC(=O)Nc1ncnc2[nH]c(-c3ccccc3)nc12`, the Activity in test [1] worked out at 101%.

For the compound `C(=C\c1nc2c(N3CCCC3)ncnc2[nH]1)/c1ccccc1`, the Activity in test [1] was determined as 101%; in test [2], 87%.

For the compound `O=C(Nc1ncnc2[nH]c(-c3ccccc3)nc12)C1CC1`, in [1], the Activity came out at 96%.

Turning to `Cn1c(-c2cccc(F)c2)nc2c(NCc3ccccc3)ncnc21`, in test [1], the Activity came out at 96%.

As to `c1cncc(-c2nc3c(OCC4CCCCC4)ncnc3[nH]2)c1`, in test [1], the Activity is 101%.

Consider `N#Cc1cccc(-c2nc3c(NC(=O)c4ccccc4)ncnc3[nH]2)c1`, for which the values for the Activity in test [1] and in [2] were 102% and 69%, respectively.

Consider `CN[C@@H]1C[C@H]2O[C@@](C)([C@@H]1OC)n1c3ccccc3c3c4c(c5c6ccccc6n2c5c31)C(=O)NC4`, for which, in test [1], the Activity was 98.4%.

As for `CC(C)CC(=O)Nc1ncnc2[nH]c(-c3ccccc3)nc12`, in test [1], the Activity worked out at 102%.

On to `O=C(Nc1ncnc2nc(-c3ccc4ccccc4c3)[nH]c12)C1CC1`, for which the pIC50 in [3] is 6.77.

In the case of `Cn1c(-c2ccc([N+](=O)[O-])cc2)nc2ncnc(NCc3ccccc3)c21`, the Activity in [1] was 101%.

Consider `Cn1c(-c2ccccc2)nc2c(N3CCCC3)ncnc21`, for which the Activity in [1] amounted to 100%.

Take `COc1ccc(CNc2ncnc3nc(-c4ccc(Cl)cc4)n(C)c23)cc1`: in test [1], the Activity worked out at 105%.

Turning to `O=C(Nc1ncnc2[nH]c(/C=C/c3ccccc3)nc12)C1CC1`, the Activity in [1] came out at 100%; in test [2], 55%.

As for `CC(C)C(=O)Nc1ncnc2[nH]c(-c3ccccc3)nc12`, in [1], the Activity was 99%.

Regarding `O=C(Nc1ncnc2[nH]c(-c3ccc4ccccc4c3)nc12)C1CC1`, the Activity in [1] amounted to 101%; in test [4], 100%; in test [5], 99.4%; in test [6], 59.5%; in test [7] it was 99.2%; in test [8] it was 91.6%. The Activity in test [9] was found to be 91.4%; in [10] it was 78.2%; in test [11] it was 91.9%; in [12] it was 18.4%; in test [13], 101%.

`COc1ccc(CNc2ncnc3c2nc(-c2ccccc2)n3C)cc1`: the Activity in [1] came out at 100%.

As for `CC(=O)Nc1ncnc2[nH]c(-c3ccc4ccccc4c3)nc12`, the Activity in [1] worked out at 98%; in test [2] it was 49%.

With `CCCCC(=O)Nc1ncnc2[nH]c(-c3ccc4ccccc4c3)nc12`, the Activity was 102% in test [1] and 31% in test [2]. This compound gave a pIC50 in [3] of less than 4.70.

Regarding `COc1ccc(CNc2ncnc3[nH]c(-c4cccnc4)nc23)cc1`, in [1], the Activity worked out at 95%.

In the case of `c1cncc(-c2nc3c(N4CCOCC4)ncnc3[nH]2)c1`, the Activity in test [1] stood at 71%.

In the case of `Cn1c(-c2ccc(Cl)cc2)nc2ncnc(N3CCCC3)c21`, in test [1], the Activity stood at 97%.

Regarding `CC(=O)Nc1ncnc2[nH]c(-c3cccc(C#N)c3)nc12`, the Activity in [1] was determined as 103%; in test [2] it was 79%.

Turning to `O=C(Nc1ncnc2[nH]c(/C=C/c3ccccc3)nc12)c1cccc(Br)c1`, the values for the Activity in test [1] and in [2] were 101% and 92%, respectively.

Consider `c1ccc(-c2nc3c(NCc4cccnc4)ncnc3[nH]2)cc1`, for which the Activity in test [1] is 84%.

`C(=C\c1nc2c(NCc3cccnc3)ncnc2[nH]1)/c1ccccc1`: the Activity in test [1] turned out to be 96%; in test [2], 84%.

In test [3], `CCCCC(=O)Nc1ncnc2nc(-c3cccc(C#N)c3)[nH]c12` gave a pIC50 of 5.91.

With `O=C(Nc1ncnc2[nH]c(-c3ccccc3)nc12)C1CCCN1` (configuration not stated), in test [1], the Activity is 93%.

For the compound `COc1ccc(C(=O)Nc2ncnc3[nH]c(-c4cccnc4)nc23)cc1`, the Activity in test [1] is 107%; in [2] it was 43%.

On to `COc1ccc(C(=O)Nc2ncnc3[nH]c(-c4cccc(Cl)c4)nc23)cc1`, for which the values for the Activity in test [1] and in test [2] were 102% and 71%, respectively.

As to `COc1ccc(CNc2ncnc3[nH]c(-c4ccccc4)nc23)cc1`, the Activity in test [1] came out at 93%.

As for `c1cncc(-c2nc3c(OC4CCCC4)ncnc3[nH]2)c1`, the Activity in test [1] came out at 83%; in test [2], 57%.

In the case of `CCCCC(=O)Nc1ncnc2[nH]c(/C=C/c3ccccc3)nc12`, the results for the Activity in test [1] and in test [2] were 103% and 55%, respectively.

Consider `Cn1c(-c2cccc(F)c2)nc2c(NC(=O)C3CC3)ncnc21`, for which the Activity in [1] was 99%.

Consider `c1cncc(-c2nc3c(N4CCCC4)ncnc3[nH]2)c1`, for which the Activity in [1] worked out at 100%.

For `O=C(Nc1ncnc2[nH]c(-c3ccccc3)nc12)c1ccccc1`, the Activity in [1] is 102%; in test [2] it was 67%.

With `C(=C\c1nc2c(Nc3ccccc3)ncnc2[nH]1)/c1ccccc1`, the Activity in test [1] worked out at 100%; in test [2], 58%.

In the case of `C(=C\c1nc2c(NCCN3CCOCC3)ncnc2[nH]1)/c1ccccc1`, the Activity was 101% in [1] and 99% in test [2].

On to `N#Cc1cccc(-c2nc3ncnc(Nc4ccccc4)c3[nH]2)c1`, for which the pIC50 in test [3] is 7.59.

On to `COc1ccc(-c2nc3ncnc(NCc4ccccc4)c3n2C)cc1`, for which, in [1], the Activity was 102%.

Take `CCCCC(=O)Nc1ncnc2[nH]c(-c3ccccc3)nc12`: the Activity in test [1] was determined as 103%.

With `c1ccc(-c2nc3c(OC4CCCC4)ncnc3[nH]2)cc1`, the Activity in [1] is 54%.

`COc1ccc(CNc2ncnc3nc(-c4cccc(F)c4)n(C)c23)cc1`: in [1], the Activity worked out at 99%.

Regarding `O=C(Nc1ncnc2[nH]c(-c3ccc4ccccc4c3)nc12)c1ccccc1`, the Activity was 100% in test [1] and 83% in test [2].

For `N#Cc1cccc(-c2nc3c(NC(=O)C4CC4)ncnc3[nH]2)c1`, the Activity was determined as 103% in test [1] and 30% in test [2]. Also, the pIC50 in test [3] was 6.11.

Turning to `CCCCC(=O)Nc1ncnc2[nH]c(-c3cccc(C#N)c3)nc12`, the Activity in [1] amounted to 101%; in [2], 34%.

`Cn1c(-c2cccc(F)c2)nc2c(N3CCCC3)ncnc21`: the Activity in test [1] stood at 100%.

`Cn1c(-c2ccc([N+](=O)[O-])cc2)nc2ncnc(N3CCCC3)c21`: the Activity in test [1] stood at 101%.

With `O=C(Nc1ncnc2[nH]c(/C=C/c3ccccc3)nc12)c1ccccc1`, the results for the Activity in [1] and in test [2] were 104% and 47%, respectively.

`O=C(Nc1ncnc2[nH]c(-c3cccnc3)nc12)c1ccccc1`: the Activity in [1] came out at 102%; in test [2], 61%.

For `O=C(Nc1ncnc2[nH]c(-c3cccc(Cl)c3)nc12)C1CC1`, the Activity in [1] worked out at 100%; in [2], 17%. Further, in [3], the pIC50 was 6.44.

For `COc1ccc(CNc2ncnc3c2nc(-c2cccc(F)c2)n3C)cc1`, the Activity in test [1] amounted to 96%.

Take `c1ccc(Nc2ncnc3nc(-c4ccccc4)[nH]c23)cc1`: the pIC50 in test [3] is 7.80.

Turning to `O=C(Nc1ncnc2[nH]c(-c3ccccc3)nc12)C1CCCCN1` (configuration not stated), the Activity in test [1] is 67%.

On to `CN(C)c1ncnc2[nH]c(-c3ccccc3)nc12`, for which the Activity in test [1] came to 85%.

For `c1cncc(CNc2ncnc3[nH]c(-c4cccnc4)nc23)c1`, the Activity in [1] was 102%.

On to `N#Cc1cccc(-c2nc3c(Nc4ccccc4)ncnc3[nH]2)c1`, for which the Activity amounted to 63% in test [1] and 2% in test [2].

For `c1ccc(CNc2ncnc3[nH]c(-c4ccccc4)nc23)cc1`, the Activity in [1] worked out at 84%.
